Tests used:
Th17 cells = assay: CD95-mediated migration / endothelial transmigration of Th17 cells (Boyden chamber); format: cell-based, human; details: non-toxic concentrations, 1 hour pre-incubation, Boyden chambers
Method: FIG. 3. Drugs inhibit CD95-mediated Ca′ response and cell migration. A. Activated PBLs were loaded with FuraPE3-AM (1 μM) and pre-treated for 1 h with non-toxic concentrations of indicated compounds. T-cells were then stimulated with cl-CD95L (100 ng/mL; arrow). Ratio values (R) were normalized to pre-stimulated values (R0) to yield R/R0 values. Data represent means±the SD. B. Left panel: using Boyden chamber assay, cell migration of parental H9 cells and their counterpart lacking CD95 (CD95-KO) was assessed. Right panel: activated PBLs were pre-incubated in the presence or absence of the indicated drugs for 1 hour using non-toxic concentration and the CD95-mediated cell migration was assessed by Boyden chambers. C. Th17 cells were sorted from blood of healthy donors (peripheral blood mononuclear cell). […] D. Th17 cells were pre-incubated in the presence or absence of the indicated drugs for 1 hour using non-toxic concentration and cell migration was assessed by Boyden chambers. […] To quantify invasion, cells were fixed with methanol and stained with Giemsa. […] For each experiment, invading cells were lysed and absorbance at 560 nm was measured. […] Cell sorting efficiency was evaluated by FACS. […] Transmigrated cells were counted in the lower reservoir by flow cytometry using a standard of 2.5×10^4 fluorescent beads (Flow-count, Beckman Coulter).

[1] = system: CD95-mediated Ca2+ signaling pathway in Th17 cells; assay: CD95-mediated Ca2+ response in Th17 cells; format: cell-based, human; details: non-toxic concentrations (1 μM), 1 h pre-treatment, cl-CD95L 100 ng/mL, FuraPE3-AM
Method: A. Activated PBLs were loaded with FuraPE3-AM (1 μM) and pre-treated for 1 h with non-toxic concentrations of indicated compounds. T-cells were then stimulated with thapsigargin (1 μM; arrow). Ratio values (R) were normalized to pre-stimulated values (R0) to yield R/R0 values. Data represent means±the SD. B. Th17 cells were sorted from healthy donors and loaded with FuraPE3-AM (1 μM). Th17 cells were pre-treated for 1 h with non-toxic concentrations of ritonavir or diflunisal (1 μM). T-cells were then stimulated with cl-CD95L (100 ng/mL; arrow). Ratio values (R) were normalized to pre-stimulated values (R0) to yield R/R0 values. Data represent means±the SD.
Human PBLs were sorted using flow cytometry cell sorting to isolate Th17 (A) according to their phenotype (CD3+CD4+CXCR5−CCR6+CXCR3−CD45RA−) and Tfh (B) (CD4+CXCR5+ICOS+PD−1+CD45RA−). Cells were pre-incubated with Indicated drugs (1 μM) for 1 h and then stimulated with 100 ng/mL of s-CD95L. [Ca2+]CYT was assessed in Fluo2 LR-AM (3 μM)-loaded cells. Data represent means±the SD of 3 independent experiments.
Peripheral blood mononuclear cells (PBMC) were isolated from buffy-coat by density gradient using lymphocyte separation medium (Eurobio, Les Ulis, France). PBMCs were then subjected to selection using a cocktail of antibody-coated magnetic beads: CCR6^+ CXCR3^−CD4^+ cells (Th17 cells) were sorted with Human Th17 Enrichment kit (STEMCELL Technologies, Grenoble, France). Cell sorting efficiency was evaluated by FACS.
T-cells were loaded with Fura-PE3-AM (1 μM) at room temperature for 30 min in Hank's Balanced Salt Solution (HBSS). After washing, the cells were incubated for 15 min in the absence of Fura-PE3-AM to complete de-esterification of the dye. Cells were placed in a temperature controlled chamber (37° C.) of an inverted epifluorescence microscope (Olympus IX70) equipped with an x40 UApo/340-1.15 W water-immersion objective (Olympus), and fluorescence micrograph images were captured at 510 nm and 12-bit resolution by a fast-scan camera (CoolSNAP fx Monochrome, Photometrics). To minimize UV light exposure, a 4×4 binning function was used. Fura-PE3 was alternately excited at 340 and 380 nm, and the ratios of the resulting images (emission filter at 520 nm) were produced at constant intervals (10 seconds). The Fura-PE3 ratio (Fratio 340/380) images were analyzed offline with Universal Imaging software, including Metafluor and Metamorph. Fratio reflects the intracellular Ca^2+ concentration changes. Each experiment was repeated at least 3 times, and the average of more than 20 single-cell traces per experiment was analyzed.

SMILES	effect on endothelial transmigration in Th17 cells (Th17 cells)	effect on CD95-mediated Ca2+ signaling in Th17 cells [1]
O=C(O)c1cc(-c2ccc(F)cc2F)ccc1O [diflunisal, 5-(2,4-difluorophenyl)-2-hydroxybenzoic acid]	abrogated	abrogated
CC(C)c1nc(CN(C)C(=O)N[C@H](C(=O)N[C@@H](Cc2ccccc2)C[C@H](O)[C@H](Cc2ccccc2)NC(=O)OCc2cncs2)C(C)C)cs1 [ritonavir, 1,3-thiazol-5-ylmethyl N-[(2S,3S,5S)-3-hydroxy-5-[[(2S)-3-methyl-2-[[methyl-[(2-propan-2-yl-1,3-thiazol-4-yl)methyl]carbamoyl]amino]butanoyl]amino]-1,6-diphenylhexan-2-yl]carbamate]	abrogated	abrogated

— US20190350907A1, “METHODS AND PHARMACEUTICAL COMPOSITIONS FOR REDUCING CD95- MEDIATED CELL MOTILITY” (INSERM (INSTITUT NATIONAL DE LA SANTÉ ET DE LA RECHERCHE …, priority 2017, published 2019)
